In patent US8415299B2, “Methods for improved avian performance” (priority 2004, dated 2013):
Like-named read-outs stand apart in the source and are kept apart here.

Columns and labels:
[1] = tested on: Cobb broiler breeder hens and roosters; assay type: in vivo
Text: Molting Cobb Broiler Breeder Hens and Roosters with Dietary Thyroxine.

[2] = tested on: 66-week-old caged laying hens; details: cited from earlier work

N[C@@H](Cc1cc(I)c(Oc2cc(I)c(O)c(I)c2)c(I)c1)C(=O)O [L-thyroxine, 3,5,3′,5′-tetraiodothyronine]
Tolerance in roosters ([1]; 25 or 40 mg/kg diet, roosters began to stroke blood from the nostrils): males were unable to tolerate these levels of L-thyroxine | # Eggs per pen ([1]; 25 ppm feed from 22-Sep, pen 50, 1-Nov): 0 | # Eggs per pen ([1]; 25 ppm feed from 22-Sep, pen 50, 1-Oct): 3 | # Eggs per pen ([1]; 25 ppm feed from 22-Sep, pen 50, 2-Nov): 0 | # Eggs per pen ([1]; 25 ppm feed from 22-Sep, pen 50, 2-Oct): 1 | # Eggs per pen ([1]; 25 ppm feed from 22-Sep, pen 50, 3-Nov): 0 | # Eggs per pen ([1]; 25 ppm feed from 22-Sep, pen 50, 3-Oct): 0 | # Eggs per pen ([1]; 25 ppm feed from 22-Sep, pen 50, 4-Nov): 0 | # Eggs per pen ([1]; 25 ppm feed from 22-Sep, pen 50, 4-Oct): 1 | # Eggs per pen ([1]; 25 ppm feed from 22-Sep, pen 50, 5-Oct): 1 | # Eggs per pen ([1]; 25 ppm feed from 22-Sep, pen 50, 6-Oct): 0 | # Eggs per pen ([1]; 25 ppm feed from 22-Sep, pen 50, 7-Oct): 0 | # Eggs per pen ([1]; 25 ppm feed from 22-Sep, pen 50, 8-Oct): 3 | # Eggs per pen ([1]; 25 ppm feed from 22-Sep, pen 50, 9-Oct): 1 | # Eggs per pen ([1]; 25 ppm feed from 22-Sep, pen 50, 10-Oct): 0 | # Eggs per pen ([1]; 25 ppm feed from 22-Sep, pen 50, 11-Oct): 0 | # Eggs per pen ([1]; 25 ppm feed from 22-Sep, pen 50, 12-Oct): 0 | # Eggs per pen ([1]; 25 ppm feed from 22-Sep, pen 50, 13-Oct): 0 | # Eggs per pen ([1]; 25 ppm feed from 22-Sep, pen 50, 14-Oct): 0 | # Eggs per pen ([1]; 25 ppm feed from 22-Sep, pen 50, 15-Oct): 0 | # Eggs per pen ([1]; 25 ppm feed from 22-Sep, pen 50, 16-Oct): 0 | # Eggs per pen ([1]; 25 ppm feed from 22-Sep, pen 50, 16-Sep): 15 | # Eggs per pen ([1]; 25 ppm feed from 22-Sep, pen 50, 17-Oct): 0 | # Eggs per pen ([1]; 25 ppm feed from 22-Sep, pen 50, 17-Sep): 14 | # Eggs per pen ([1]; 25 ppm feed from 22-Sep, pen 50, 18-Oct): 0 | # Eggs per pen ([1]; 25 ppm feed from 22-Sep, pen 50, 18-Sep): 11 | # Eggs per pen ([1]; 25 ppm feed from 22-Sep, pen 50, 19-Oct): 0 | # Eggs per pen ([1]; 25 ppm feed from 22-Sep, pen 50, 19-Sep): 17 | # Eggs per pen ([1]; 25 ppm feed from 22-Sep, pen 50, 20-Oct): 0 | # Eggs per pen ([1]; 25 ppm feed from 22-Sep, pen 50, 20-Sep): 15 | # Eggs per pen ([1]; 25 ppm feed from 22-Sep, pen 50, 21-Oct): 0 | # Eggs per pen ([1]; 25 ppm feed from 22-Sep, pen 50, 21-Sep): 14 | # Eggs per pen ([1]; 25 ppm feed from 22-Sep, pen 50, 22-Oct): 0 | # Eggs per pen ([1]; 25 ppm feed from 22-Sep, pen 50, 22-Sep): 14 | # Eggs per pen ([1]; 25 ppm feed from 22-Sep, pen 50, 23-Oct): 0 | # Eggs per pen ([1]; 25 ppm feed from 22-Sep, pen 50, 23-Sep): 19 | # Eggs per pen ([1]; 25 ppm feed from 22-Sep, pen 50, 24-Oct): 0 | # Eggs per pen ([1]; 25 ppm feed from 22-Sep, pen 50, 24-Sep): 7 | # Eggs per pen ([1]; 25 ppm feed from 22-Sep, pen 50, 25-Oct): 0 | # Eggs per pen ([1]; 25 ppm feed from 22-Sep, pen 50, 25-Sep): 8 | # Eggs per pen ([1]; 25 ppm feed from 22-Sep, pen 50, 26-Oct): 0 | # Eggs per pen ([1]; 25 ppm feed from 22-Sep, pen 50, 26-Sep): 9 | # Eggs per pen ([1]; 25 ppm feed from 22-Sep, pen 50, 27-Oct): 0 | # Eggs per pen ([1]; 25 ppm feed from 22-Sep, pen 50, 27-Sep): 4 | # Eggs per pen ([1]; 25 ppm feed from 22-Sep, pen 50, 28-Oct): 0 | # Eggs per pen ([1]; 25 ppm feed from 22-Sep, pen 50, 28-Sep): 3 | # Eggs per pen ([1]; 25 ppm feed from 22-Sep, pen 50, 29-Oct): 0 | # Eggs per pen ([1]; 25 ppm feed from 22-Sep, pen 50, 29-Sep): 1 | # Eggs per pen ([1]; 25 ppm feed from 22-Sep, pen 50, 30-Oct): 0 | # Eggs per pen ([1]; 25 ppm feed from 22-Sep, pen 50, 30-Sep): 0 | # Eggs per pen ([1]; 25 ppm feed from 22-Sep, pen 50, 31-Oct): 0 | # Eggs per pen ([1]; 40 ppm feed from 22-Sep, pen 51, 1-Nov): 1 | # Eggs per pen ([1]; 40 ppm feed from 22-Sep, pen 51, 1-Oct): 1 | # Eggs per pen ([1]; 40 ppm feed from 22-Sep, pen 51, 2-Nov): 3 | # Eggs per pen ([1]; 40 ppm feed from 22-Sep, pen 51, 2-Oct): 0 | # Eggs per pen ([1]; 40 ppm feed from 22-Sep, pen 51, 3-Nov): 3 | # Eggs per pen ([1]; 40 ppm feed from 22-Sep, pen 51, 3-Oct): 0 | # Eggs per pen ([1]; 40 ppm feed from 22-Sep, pen 51, 4-Nov): 5 | # Eggs per pen ([1]; 40 ppm feed from 22-Sep, pen 51, 4-Oct): 0 | # Eggs per pen ([1]; 40 ppm feed from 22-Sep, pen 51, 5-Oct): 0 | # Eggs per pen ([1]; 40 ppm feed from 22-Sep, pen 51, 6-Oct): 0 | # Eggs per pen ([1]; 40 ppm feed from 22-Sep, pen 51, 7-Oct): 0 | # Eggs per pen ([1]; 40 ppm feed from 22-Sep, pen 51, 8-Oct): 0 | # Eggs per pen ([1]; 40 ppm feed from 22-Sep, pen 51, 9-Oct): 0 | # Eggs per pen ([1]; 40 ppm feed from 22-Sep, pen 51, 10-Oct): 0 | # Eggs per pen ([1]; 40 ppm feed from 22-Sep, pen 51, 11-Oct): 0 | # Eggs per pen ([1]; 40 ppm feed from 22-Sep, pen 51, 12-Oct): 0 | # Eggs per pen ([1]; 40 ppm feed from 22-Sep, pen 51, 13-Oct): 0 | # Eggs per pen ([1]; 40 ppm feed from 22-Sep, pen 51, 14-Oct): 0 | # Eggs per pen ([1]; 40 ppm feed from 22-Sep, pen 51, 15-Oct): 0 | # Eggs per pen ([1]; 40 ppm feed from 22-Sep, pen 51, 16-Oct): 0 | # Eggs per pen ([1]; 40 ppm feed from 22-Sep, pen 51, 16-Sep): 12 | # Eggs per pen ([1]; 40 ppm feed from 22-Sep, pen 51, 17-Oct): 0 | # Eggs per pen ([1]; 40 ppm feed from 22-Sep, pen 51, 17-Sep): 19 | # Eggs per pen ([1]; 40 ppm feed from 22-Sep, pen 51, 18-Oct): 0 | # Eggs per pen ([1]; 40 ppm feed from 22-Sep, pen 51, 18-Sep): 19 | # Eggs per pen ([1]; 40 ppm feed from 22-Sep, pen 51, 19-Oct): 0 | # Eggs per pen ([1]; 40 ppm feed from 22-Sep, pen 51, 19-Sep): 20 | # Eggs per pen ([1]; 40 ppm feed from 22-Sep, pen 51, 20-Oct): 0 | # Eggs per pen ([1]; 40 ppm feed from 22-Sep, pen 51, 20-Sep): 16 | # Eggs per pen ([1]; 40 ppm feed from 22-Sep, pen 51, 21-Oct): 0 | # Eggs per pen ([1]; 40 ppm feed from 22-Sep, pen 51, 21-Sep): 16 | # Eggs per pen ([1]; 40 ppm feed from 22-Sep, pen 51, 22-Oct): 0 | # Eggs per pen ([1]; 40 ppm feed from 22-Sep, pen 51, 22-Sep): 18 | # Eggs per pen ([1]; 40 ppm feed from 22-Sep, pen 51, 23-Oct): 0 | # Eggs per pen ([1]; 40 ppm feed from 22-Sep, pen 51, 23-Sep): 15 | # Eggs per pen ([1]; 40 ppm feed from 22-Sep, pen 51, 24-Oct): 0 | # Eggs per pen ([1]; 40 ppm feed from 22-Sep, pen 51, 24-Sep): 10 | # Eggs per pen ([1]; 40 ppm feed from 22-Sep, pen 51, 25-Oct): 0 | # Eggs per pen ([1]; 40 ppm feed from 22-Sep, pen 51, 25-Sep): 11 | # Eggs per pen ([1]; 40 ppm feed from 22-Sep, pen 51, 26-Oct): 0 | # Eggs per pen ([1]; 40 ppm feed from 22-Sep, pen 51, 26-Sep): 6 | # Eggs per pen ([1]; 40 ppm feed from 22-Sep, pen 51, 27-Oct): 0 | # Eggs per pen ([1]; 40 ppm feed from 22-Sep, pen 51, 27-Sep): 5 | # Eggs per pen ([1]; 40 ppm feed from 22-Sep, pen 51, 28-Oct): 0 | # Eggs per pen ([1]; 40 ppm feed from 22-Sep, pen 51, 28-Sep): 0 | # Eggs per pen ([1]; 40 ppm feed from 22-Sep, pen 51, 29-Oct): 3 | # Eggs per pen ([1]; 40 ppm feed from 22-Sep, pen 51, 29-Sep): 1 | # Eggs per pen ([1]; 40 ppm feed from 22-Sep, pen 51, 30-Oct): 3 | # Eggs per pen ([1]; 40 ppm feed from 22-Sep, pen 51, 30-Sep): 0 | # Eggs per pen ([1]; 40 ppm feed from 22-Sep, pen 51, 31-Oct): 3 | Time to reduced feed intake, ceased egg production and start of feather molt ([1]; Cobb broiler breeder hens on thyroxine treated feed (25 or 40 mg/kg)): 15 to 17 days | Days to target body weight (30% body weight loss) ([2]; 10 mg/kg feed in grape pomace diet after 1-day feed withdrawal): 16 days | Days to target body weight (30% body weight loss) ([2]; corn diet with or without 10 mg/kg, 1-day fast or no fast): 28 days
